{"source": "patent US20040044008A1", "about": "“Use of therapeutic benzamide derivatives” (priority 2000, published 2004)", "target": "human MTP (Homo sapiens, UniProt P55157)", "sequence (P55157 19-894)": "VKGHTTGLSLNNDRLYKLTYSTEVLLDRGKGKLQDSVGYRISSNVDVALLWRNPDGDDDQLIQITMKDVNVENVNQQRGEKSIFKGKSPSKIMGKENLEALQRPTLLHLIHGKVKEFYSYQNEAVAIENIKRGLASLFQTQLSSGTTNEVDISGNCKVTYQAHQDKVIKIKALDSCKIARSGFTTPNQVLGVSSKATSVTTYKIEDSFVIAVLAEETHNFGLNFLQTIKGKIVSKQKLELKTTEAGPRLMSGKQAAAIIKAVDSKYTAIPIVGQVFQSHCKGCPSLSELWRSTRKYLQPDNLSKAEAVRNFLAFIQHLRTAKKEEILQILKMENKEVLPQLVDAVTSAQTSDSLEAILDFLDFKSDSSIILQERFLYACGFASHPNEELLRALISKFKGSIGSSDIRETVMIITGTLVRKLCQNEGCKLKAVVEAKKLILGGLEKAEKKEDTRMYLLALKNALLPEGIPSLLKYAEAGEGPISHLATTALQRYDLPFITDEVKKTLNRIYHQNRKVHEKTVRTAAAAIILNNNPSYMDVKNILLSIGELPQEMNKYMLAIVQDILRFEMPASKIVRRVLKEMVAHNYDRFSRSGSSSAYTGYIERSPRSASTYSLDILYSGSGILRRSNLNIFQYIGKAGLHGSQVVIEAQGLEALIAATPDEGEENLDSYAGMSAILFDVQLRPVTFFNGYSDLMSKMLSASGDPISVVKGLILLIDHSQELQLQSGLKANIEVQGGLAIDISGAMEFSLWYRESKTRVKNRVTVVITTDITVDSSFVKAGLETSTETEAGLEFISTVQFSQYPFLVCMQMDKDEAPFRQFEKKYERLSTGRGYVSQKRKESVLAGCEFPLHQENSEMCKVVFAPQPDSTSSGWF", "sequence (P07237 18-508 partner)": "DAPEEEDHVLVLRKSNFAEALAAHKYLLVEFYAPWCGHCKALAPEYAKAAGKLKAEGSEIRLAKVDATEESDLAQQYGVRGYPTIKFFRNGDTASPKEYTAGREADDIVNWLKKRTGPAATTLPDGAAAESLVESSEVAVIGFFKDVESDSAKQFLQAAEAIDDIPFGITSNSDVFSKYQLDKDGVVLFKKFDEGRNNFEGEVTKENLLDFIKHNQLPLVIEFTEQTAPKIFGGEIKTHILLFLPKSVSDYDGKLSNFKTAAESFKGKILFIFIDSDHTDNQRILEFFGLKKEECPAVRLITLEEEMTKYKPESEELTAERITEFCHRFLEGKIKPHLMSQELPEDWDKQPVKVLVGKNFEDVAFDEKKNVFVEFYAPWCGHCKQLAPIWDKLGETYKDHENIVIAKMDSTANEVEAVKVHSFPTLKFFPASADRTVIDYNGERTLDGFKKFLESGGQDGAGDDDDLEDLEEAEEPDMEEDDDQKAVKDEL", "assay": "human MTP activity assay (SPA, 3H-triolein transfer between liposomes)", "format": "biochemical", "conditions": "human MTP-mediated 3H-triolein transfer from donor to acceptor liposomes, 25 min incubation at 37° C., streptavidin-SPA beads", "excerpt": "Such derivatives are clear to those skilled in the art, without undue experimentation, and with reference to the teaching of Burger's Medicinal Chemistry And Drug Discovery, 5th Edition, Vol 1: Principles And Practice, which is incorporated herein by reference. […] MTP inhibitors may be used in the treatment of non-insulin dependent diabetes mellitus, insulin resistance, coronary heart disease, prevention of stroke, pancreatitis, hypercholesterolemia, hypertriglyceridemia, hyperlipemia, mixed dyslipidemia, post-prandial hyperlipemia, atherosclerosis and obesity. The ability of the compounds of this invention to inhibit human MTP activity is measured by an in vitro assay where MTP transfers 3H-triolein between phosphatidylcholine liposomes. The specificity of the compounds of the invention is established by comparing the effects on apoB-100 and apoprotein A-1 production. A specificity of at least 100 is preferred.\nThe human MTP activity assay was established using SPA technology. Donor liposomes were prepared with 3H-triolein and phosphatidylcholine, while acceptor liposomes contained biotinylated phosphatidylethanolamine and phosphatidylcholine. The MTP-mediated 3H-triolein transfer onto acceptor liposomes was allowed by a 25 min incubation at 37° C., and quantified by the addition of streptavidin-SPA beads."}
{"smiles": "Cc1ccc(C(=O)Nc2ccc(N3CCN(Cc4ccc[nH]4)CC3)cc2)c(-c2ccc(C(C)C)cc2)c1", "note": "[Example 63, 4′-Isopropyl-5-methyl-biphenyl-2-carboxylic acid [4-(4-(1H-pyrrol-2-ylmethyl)-piperazin-1-yl)-phenyl]-amide]", "values": [{"measurement": "IC50", "result": 0.7, "unit": "nM"}]}
